Experimental findings from article PMC9045243, “Gluconate Kinase Is Required for Gluconate Assimilation and Sporulation in Cryptococcus neoformans” (Microbiology Spectrum, 2022) are described below.

SMILES strings stand for the structures.

For assay [1], the target named is T1, CnGnk1 (Gnk1, Gnk1p; formerly IRK3) (Cryptococcus neoformans, UniProt J9VGW6).
T1 construct: gene CNAG_03048
T1 sequence (J9VGW6 1-230): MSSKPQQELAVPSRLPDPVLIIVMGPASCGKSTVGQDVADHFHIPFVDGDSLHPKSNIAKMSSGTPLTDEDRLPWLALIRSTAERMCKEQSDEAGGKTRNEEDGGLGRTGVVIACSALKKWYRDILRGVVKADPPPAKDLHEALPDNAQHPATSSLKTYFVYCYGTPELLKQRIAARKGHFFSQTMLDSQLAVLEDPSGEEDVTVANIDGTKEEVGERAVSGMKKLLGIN
Briefly: 6PGDH-coupled NADPH absorbance at […] nm. It counts as biochemical. The conditions noted are these: 1 mM MgCl2, 500 uM NADP+, pH 7.5, 37 C.

In assay [2] the target is T1, CnGnk1 (Gnk1, Gnk1p; formerly IRK3). The assay is described as follows: competition against gluconate, 6PGDH-coupled NADPH absorbance at […] nm. Type of assay: biochemical. The note with it: 0.5 mM gluconate, competing sugar 10 mM.

`Nc1ncnc2c1ncn2[C@@H]1O[C@H](COP(=O)(O)OP(=O)(O)OP(=O)(O)O)[C@@H](O)[C@H]1O` [ATP]: the “KM (apparent)” value in assay [1] (10 mM gluconate) was 2.6, 95% CI (1.9, 3.7) mM.

With `OC[C@H]1OC(O)[C@H](O)[C@@H](O)[C@H]1O` (some centres unmarked) [galactose], the “% reduction in activity at 10 mM” value in assay [2] is reported as ~ 20%.

`O=C(O)[C@H](O)[C@@H](O)[C@H](O)[C@H](O)CO` [gluconate]: in assay [1] (10 mM ATP), the “KM (apparent)” value was 3.7, 95% CI (2.7, 5.2) mM.

For `OC[C@H]1OC(O)[C@H](O)[C@@H](O)[C@@H]1O` (some centres unmarked) [glucose], the “% reduction in activity at 10 mM” value in assay [2] was ~ 40%.

As to `OC[C@@H](O)[C@@H](O)[C@H](O)[C@H](O)CO` [mannitol], the “% reduction in activity at 10 mM” value in assay [2] is listed as ~ 20%.
